Like-named read-outs stand apart in the source and are kept apart here.
How the values were obtained:
[1] = tested on: SEB-induced toxic shock in C3H/HeJ mice; conditions: mouse, in vivo
[2] = tested on: SEA-, TSST-1-, SPEA-, and SPEC-stimulated human peripheral blood mononuclear cells; assay type: cell-based; conditions: rapamycin 1 μg/mL
[3] = tested on: human PBMC stimulated with SEB; assay: cells; assay type: cell-based; conditions: for inhibition at 6.9 µg/mL: Homo sapiens, PBMC, 16 h
[4] = Determination of rapamycin in murine whole blood (HPLC, ion-trap MS); assay type: in vivo; conditions: mouse; for concentration at 1 h / concentration at 97 h: C3H/HeJ, whole blood; for concentration at 1 h: read-out: blood level of rapamycin
Procedure: Determination of rapamycin in murine whole blood. Blood was collected from rapamycin-treated mice (n=5) by retro-orbital bleeding into EDTA tubes 1 h after intranasal administration of rapamycin. Blood was centrifuged at 12000×g for 3 min to remove cells. Supernatants was removed and stored at −70° C. until analysis. Analysis of rapamycin was performed as previously described (23) using an Agilent Technologies series 1100 Capillary HPLC instrument and ion-trap mass spectrometer.

[5] = tested on: serum MCP-1, IL-6 and IL-2 in SEB-treated mice; conditions: mouse, in vivo
PBMC = assay: Trypan Blue exclusion test on PBMC; conditions: data not shown
[6] = tested on: lung MCP-1, IL-2 and IL-6 in SEB-exposed mice; conditions: mouse, in vivo
[7] = tested on: peripheral blood cells and splenocytes from mice treated with SEB; assay: Cellular apoptosis by JC-1 fluorescence (flow cytometry) in SEB-treated mice; assay type: in vivo, mouse; conditions: rapamycin 0.16 mg/kg i.n. at 17 h, cells taken 18 h after SEB
Procedure: Detection of cellular apoptosis by measuring fluorescence of mitochondrial J-aggregates. The loss of mitochondrial permeability, indicative of cellular apoptosis was detected by a fluorescent cationic dye, JC-1 (51). Briefly, peripheral blood or spleens were removed at 18 h from mice treated with SEB, SEB plus 0.16 mg/kg of intranasal rapamycin at 17 h after SEB exposure. Negative controls consisted of mice treated with DMSO at 17 h after saline. Red blood cells from peripheral blood and spleens were lyzed with FACS lyzing buffer (Becton Dickinson, Mountainview, Calif.) prior to staining with JC-1 dye according to manufacturer's instructions (Immunochemistry Technology, Bloomington, Minn.). Flow cytometer (Becton Dickinson) was used to measure cell fluorescence at 530 nm, which represents apoptotic cells.

[8] = tested on: SEB-induced proliferation of T cells in PBMC; assay: cells; assay type: cell-based, human
[9] = cited from earlier work

C[C@@H]1C[C@H]2[C@@H]3CCC4=CC(=O)C=C[C@]4(C)[C@@]3(F)[C@@H](O)C[C@]2(C)[C@@]1(O)C(=O)CO [dexamethasone]
lethality [1]: 90%

CO[C@H]1C[C@@H]2CC[C@@H](C)[C@@](O)(O2)C(=O)C(=O)N2CCCC[C@H]2C(=O)O[C@H]([C@H](C)C[C@@H]2CC[C@@H](O)[C@H](OC)C2)CC(=O)[C@H](C)/C=C(\C)[C@@H](O)[C@@H](OC)C(=O)[C@H](C)C[C@H](C)/C=C/C=C/C=C/1C [rapamycin]
reduction of superantigen-induced T cell proliferation ([2]; SEA-stimulated): 74% | reduction of superantigen-induced T cell proliferation ([2]; SPEA-stimulated): 68% | reduction of superantigen-induced T cell proliferation ([2]; SPEC-stimulated): 69% | reduction of superantigen-induced T cell proliferation ([2]; TSST-1-stimulated): 42% | suppression of IFNγ [3]: 36% | suppression of IL-2 [3]: 34% | inhibition at 6.9 µg/mL ([3]; read-out: inhibition of IL-1β production): 97% | inhibition at 6.9 µg/mL ([3]; read-out: inhibition of IL-2 production): 100% | inhibition at 6.9 µg/mL ([3]; read-out: inhibition of IL-6 production): 67% | inhibition at 6.9 µg/mL ([3]; read-out: inhibition of TNFα production): 77% | concentration at 1 h ([4]; other: intranasal followed by intraperitoneal, 1 h after multiple dosing (2 i.n. doses plus 1 i.p. dose)): 692 ± 406 ng/mL | concentration at 97 h ([4]; other: intranasal followed by intraperitoneal, at 97 h, lower doses (0.03 mg/kg i.n. at 2 and 5 h, 0.08 mg/kg i.p. at 24, 48, 72 and 96 h)): 38 ± 15 ng/mL | concentration at 97 h ([4]; other: intranasal followed by intraperitoneal, at 97 h after multiple dosing (i.n. 0.7 mg/kg at 2 and 5 h, i.p. 1.6 mg/kg at 30, 48, 72 and 96 h)): 622 ± 282 ng/mL | concentration at 1 h ([4]; other: intranasal, 0.7 mg/kg, 1 h after an i.n. dose of 0.7 mg/kg): 492 ± 204 ng/mL | blood level of rapamycin ([4]; 1 h after an i.n. dose of 0.7 mg/kg, 0.7 mg/kg): 658 ± 408 ng/mL | reduction of peak serum IL-6 [5]: 80% | reduction of peak serum MCP-1 [5]: 90% | cytotoxic effect (Trypan Blue exclusion) (PBMC): not due to cytotoxic effect | effective in protecting mice from SEB-mediated shock [1]: 100% | protected [1]: 100% | protection [1]: 20% | weight gain [1]: 8-17% | attenuation of lung IL-2 [6]: 80% | attenuation of lung IL-6 [6]: 65% | attenuation of lung MCP-1 [6]: 56% | decrease in number of apoptotic cells ([7]; mouse peripheral blood): 66% | decrease in number of apoptotic cells ([7]; mouse spleen): 74% | reduction of T cell proliferation [8]: 56% | inhibition at 6.9 µg/mL ([8]; Homo sapiens, T-cell, 48 h, read-out: inhibition of SEB-induced T cell proliferation (maximal)): 94% | blood concentrations of rapamycin ([9]; healthy subjects, 1 h after 15 mg of rapamycin): 78.2 ± 18 ng/mL | blood levels of rapamycin ([9]; renal transplantation, 5 mg/day, at 1.8 h): 37.4 ± 21 ng/mL

— patent US20120252834A1 (priority 2009, published 2012)
